Source: article PMC9783573, “Introduction of a SiFA Moiety into the D-Glutamate Chain of DOTA-PP-F11N Results in Radiohybrid-Based CCK-2R-Targeted Compounds with Improved Pharmacokinetics In Vivo” (Pharmaceuticals, 2022)
Like-named read-outs stand apart in the source and are kept apart here. Non-standard residues stand in square brackets, D forms with d. Residues, ends and D or L forms follow the SMILES beside them. *: point of attachment. X1 = O=C(O)CN1CCN(CC(=O)O)CCN([C@H](CCC(=O)*)C(=O)O)CCN(CC(=O)O)CC1; Benzoyl(4-SiFtBu2) = CC(C)(C)[Si](F)(c1ccc(C(=O)*)cc1)C(C)(C)C; Nle = CCCC[C@H](N)C(=O)O; dDap = NC[C@@H](N)C(=O)O

Assay: Biodistribution at 24 h p.i. in AR42J tumour-bearing CB17-SCID mice
Format: in vivo
Conditions: mouse, in vivo, 100 pmol, n = 4, mean ± SD
Protocol: Figure 4 Biodistribution of the reference compound, [^177Lu]Lu-DOTA-PP-F11N (blue), the α-linked [^177Lu]Lu-(R)-DOTAGA-rhCCK-9 (red) and the γ-linked [^177Lu]Lu-(R)-DOTAGA-rhCCK-16 (green) in selected organs (%ID/g) at 24 h p.i. in AR42J tumour-bearing CB17-SCID mice (100 pmol each, n = 4). Data is expressed as mean ± SD.
All animal experiments were conducted in accordance with general animal welfare regulations in Germany (German animal protection act, in the edition of the announcement, dated 18 May 2006, as amended by Article 280 of 19 June 2020, approval no. ROB-55.2-1-2532.Vet_02-18-109 by the General Administration of Upper Bavaria) and the institutional guidelines for the care and use of animals. CB17-SCID mice of both genders and aged 2–12 months (Charles River Laboratories International Inc., Sulzfeld, Germany) were allowed to acclimate at the in-house animal facility for at least one week prior to tumour cell inoculation was performed. Tumour xenografts were generated using AR42J cells (5.0 × 10^6 cells per 200 µL) suspended in a 1/1 mixture (v/v) of RPMI 1640 medium and Cultrex® Basement Membrane Matrix Type 3 (Trevigen, Gaithersburg, MD, USA). This suspension was inoculated subcutaneously onto the right shoulder and animals were used when tumour volume was >100 mm^3 (1–2 week after inoculation). Exclusion criteria for animals from an experiment were either weight loss higher than 20%, a tumour size above 1500 mm^3, an ulceration of the tumour, respiratory distress or a change of behaviour. None of these criteria applied to any animal from the experiment. Neither randomisation nor blinding was applied in the allocation of the experiments. Health status is SPF according to FELASA.
For biodistribution studies, the ^177Lu-labelled compound (approx. 2–3 MBq, 100 pmol) was injected into a lateral tail vein (n = 4) of anesthetised (2% isoflurane) AR42J tumour-bearing CB-17-SCID mice. At 24 h post-injection (p.i.), the mice were euthanised. Thereafter, the pertinent organs were removed, weighed and measured using a γ-counter.

[1] = AR42J tumour, read-out: Biodistribution, Tumour
[2] = read-out: Biodistribution, Adrenal
[3] = read-out: Biodistribution, Blood
[4] = read-out: Biodistribution, Bone
[5] = read-out: Biodistribution, Heart
[6] = read-out: Biodistribution, Intestine
[7] = read-out: Biodistribution, Kidney
[8] = read-out: Biodistribution, Liver
[9] = read-out: Biodistribution, Lung
[10] = read-out: Biodistribution, Muscle
[11] = read-out: Biodistribution, Pancreas
[12] = read-out: Biodistribution, Spleen
[13] = read-out: Biodistribution, Stomach

Compound | tissue uptake at 24 h [1] [%ID/g] | tissue uptake at 24 h [2] [%ID/g] | tissue uptake at 24 h [3] [%ID/g] | tissue uptake at 24 h [4] [%ID/g] | tissue uptake at 24 h [5] [%ID/g] | tissue uptake at 24 h [6] [%ID/g] | tissue uptake at 24 h [7] [%ID/g] | tissue uptake at 24 h [8] [%ID/g] | tissue uptake at 24 h [9] [%ID/g] | tissue uptake at 24 h [10] [%ID/g] | tissue uptake at 24 h [11] [%ID/g] | tissue uptake at 24 h [12] [%ID/g] | tissue uptake at 24 h [13] [%ID/g]
CCCC[C@H](NC(=O)[C@H](Cc1c[nH]c2ccccc12)NC(=O)CNC(=O)[C@H](Cc1ccc(O)cc1)NC(=O)[C@H](C)NC(=O)[C@@H](CCC(=O)O)NC(=O)[C@@H](CCC(=O)O)NC(=O)[C@@H](CCC(=O)O)NC(=O)[C@@H](CCC(=O)O)NC(=O)[C@@H](CCC(=O)O)NC(=O)[C@@H](CCC(=O)O)NC(=O)[C@@H](CCC(=O)O)NC(=O)[C@@H](CCC(=O)O)NC(=O)[C@@H](CNC(=O)c1ccc([Si](F)(C(C)(C)C)C(C)(C)C)cc1)NC(=O)CC[C@H](C(=O)O)N1CCN(CC(=O)O)CCN(CC(=O)O)CCN(CC(=O)O)CC1)C(=O)N[C@@H](CC(=O)O)C(=O)N[C@@H](Cc1ccccc1)C(N)=O [[nat/177Lu]Lu-(R)-DOTAGA-rhCCK-9, metal not drawn] (X1-[dDap](Benzoyl(4-SiFtBu2))[dE][dE][dE][dE][dE][dE][dE][dE]AYGW[Nle]DF-NH2) | 6.4 ± 1.48 | 0.45 ± 0.3 | 0.02 | 0.82 ± 0.42 | 0.09 ± 0.03 | 0.26 ± 0.04 | 84.4 ± 22.7 | 1.07 ± 0.54 | 0.1 ± 0.05 | 0.03 ± 0.01 | 0.31 ± 0.2 | 0.7 ± 0.69 | 1.8 ± 0.37
CCCC[C@H](NC(=O)[C@H](Cc1c[nH]c2ccccc12)NC(=O)CNC(=O)[C@H](Cc1ccc(O)cc1)NC(=O)[C@H](C)NC(=O)CC[C@@H](NC(=O)CC[C@@H](NC(=O)CC[C@@H](NC(=O)CC[C@@H](NC(=O)CC[C@@H](NC(=O)CC[C@@H](NC(=O)[C@@H](CNC(=O)c1ccc([Si](F)(C(C)(C)C)C(C)(C)C)cc1)NC(=O)CC[C@H](C(=O)O)N1CCN(CC(=O)O)CCN(CC(=O)O)CCN(CC(=O)O)CC1)C(=O)O)C(=O)O)C(=O)O)C(=O)O)C(=O)O)C(=O)O)C(=O)N[C@@H](CC(=O)O)C(=O)N[C@@H](Cc1ccccc1)C(N)=O [[nat/177Lu]Lu-(R)-DOTAGA-rhCCK-16, metal not drawn] | 15.7 ± 3.3 | 1.49 ± 1.5 | 0.01 | 0.17 ± 0.02 | 0.11 ± 0.01 | 0.2 ± 0.04 | 85.5 ± 11.3 | 1.18 ± 0.27 | 0.09 ± 0.02 | 0.05 ± 0.01 | 0.39 ± 0.12 | 0.62 ± 0.03 | 3.51 ± 0.5
CCCC[C@H](NC(=O)[C@H](Cc1c[nH]c2ccccc12)NC(=O)CNC(=O)[C@H](Cc1ccc(O)cc1)NC(=O)[C@H](C)NC(=O)[C@@H](CCC(=O)O)NC(=O)[C@@H](CCC(=O)O)NC(=O)[C@@H](CCC(=O)O)NC(=O)[C@@H](CCC(=O)O)NC(=O)[C@@H](CCC(=O)O)NC(=O)[C@@H](CCC(=O)O)NC(=O)CN1CCN(CC(=O)O)CCN(CC(=O)O)CCN(CC(=O)O)CC1)C(=O)N[C@@H](CC(=O)O)C(=O)N[C@@H](Cc1ccccc1)C(N)=O [[nat/177Lu]Lu-DOTA-PP-F11N, metal not drawn, reference compound] | 1.88 ± 0.82 | 0.03 ± 0.03 |  | 0.03 ± 0.01 |  | 0.04 ± 0.02 | 3.08 ± 0.51 | 0.67 ± 0.64 |  |  | 0.05 ± 0.01 | 0.07 ± 0.03 | 0.36 ± 0.05
